The values below come from PubChem BioAssay AID1329 (NMMLSC, 2008).

The source made the active and inactive calls. How the calls were made is not given here.

In this experiment the target is Induced myeloid leukemia cell differentiation protein Mcl-1 (Homo sapiens) (UniProt Q07820). The experiment in a line: Mcl-1/Bim interaction regulators – biochemical, bead-based flow cytometry, multiplexed, human, dose response (AID 1329). To be noted: Bim peptide-Mcl-1 binding, MCF.
Chain of Induced myeloid leukemia cell differentiation protein Mcl-1 (Homo sapiens) (Q07820 whole entry, looked up): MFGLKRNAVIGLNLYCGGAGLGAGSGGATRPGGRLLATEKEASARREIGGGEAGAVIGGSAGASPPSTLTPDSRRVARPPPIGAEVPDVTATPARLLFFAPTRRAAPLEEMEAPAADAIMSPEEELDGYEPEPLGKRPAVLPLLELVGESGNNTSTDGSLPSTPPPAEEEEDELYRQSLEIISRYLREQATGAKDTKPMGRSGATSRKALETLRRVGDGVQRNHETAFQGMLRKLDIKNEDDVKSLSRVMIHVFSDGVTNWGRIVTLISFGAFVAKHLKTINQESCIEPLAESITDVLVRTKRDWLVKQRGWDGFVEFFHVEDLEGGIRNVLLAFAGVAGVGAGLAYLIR

With `COc1cc(/C=N/NC(=O)c2ccc([N+](=O)[O-])cc2Cl)cc(Br)c1O`, the percent span result was “inactive”.

Turning to `Cc1ccc(OCC(=O)NCc2ccccn2)c(Br)c1`, the percent span entry is “inactive”.

As for `CN(CCc1ccccn1)C(=O)CCC1CCCN(C(=O)NC2CCCCC2)C1` (configuration not stated), the percent span entry was “inactive”.

Turning to `Cc1noc(C)c1COc1ccc(C(=O)Nc2cccnc2)cc1`, the percent span result was “inactive”.

As for `CNc1ccc(Br)cc(C(=O)/C=C/c2cc(OC)ccc2OC)c1=O`, the percent span result was “inactive”.

For `CCOc1cc(C2Nc3cccc4cccc(c34)N2)ccc1O`, the percent span entry is “inactive”.

In the case of `COCCN=c1scc(-c2ccco2)n1/N=C/c1ccc(O)c(O)c1O`, the percent span result was “inactive”.

On to `Cc1ccc(NC(=O)C/C(N)=N/OC(=O)c2ccccc2)cc1`, for which the percent span result is “inactive”.

For the compound `Cc1nn(-c2ccc(Cl)c(Cl)c2)c(C)c1C(=O)O`, the percent span result was “inactive”.

Turning to `c1ccc(Nc2nc(-c3ccncc3)cs2)cc1`, the percent span entry was “inactive”.

As to `Cn1c(N)c(C(=O)COC(=O)c2cc(-c3ccco3)nc3ccccc23)c(=O)n(C)c1=O`, the percent span entry was “inactive”.

Turning to `O=C(NCc1ccccn1)c1ccc2nc(-c3ccco3)c(-c3ccco3)nc2c1`, the percent span entry was “inactive”.

Regarding `CC(C)c1ccc(/C=N/NC(=O)c2ccccc2Cl)cc1`, the percent span entry is “inactive”.

On to `CCCCCCn1nc(C(=O)Nc2nc3c(s2)CCCC3)c2ccccc2c1=O`, for which the percent span result was “inactive”.

On to `O=C(Nc1cccc(-c2ccc3nncn3n2)c1)c1ccco1`, for which the percent span result is “inactive”.

In the case of `CCOc1cc(S(=O)(=O)Nc2ccccn2)ccc1F`, the percent span entry was “inactive”.

Turning to `COc1cccc(/C=N/Nc2nn3cnnc3c3ccccc23)c1O`, the percent span entry is “inactive”.

Regarding `OCCN1CCN(CCCc2c3c(cc4c2CCC4)CCC3)CC1`, the percent span result was “inactive”.

As for `COCCN=c1scc(-c2cccs2)n1/N=C/c1ccc(O)c(O)c1O`, the percent span entry was “inactive”.

As to `COCc1cc(CN2CCCC(CNC(=O)c3ccc(F)cc3)C2)ccc1OC` (configuration not stated), the percent span result was “inactive”.

`O=C(Nc1ccncc1)c1cc2ccccc2o1`: the percent span entry was “inactive”.

As to `COc1cc(CNc2ccc3[nH]c(=O)[nH]c3c2)cc(Br)c1OCC(=O)NC(C)(C)C`, the percent span result is “inactive”.

With `CC1(C)CC(NC(=O)COc2ccc([N+](=O)[O-])cc2)CC(C)(C)N1`, the percent span result was “inactive”.

With `Fc1ccc(Cn2nnnc2C(c2ccc(Cl)cc2)N2CCSCC2)cc1` (configuration not stated), the percent span result is “inactive”.

Take `CCOC(=O)C1=C(CC)Nc2ccccc2N=C1NC(=O)c1ccc(S(=O)(=O)N2CCOCC2)cc1`: the percent span result was “inactive”.

Regarding `Cc1cccc(/C=N/N(CCO)C2=NS(=O)(=O)c3ccccc32)c1`, the percent span entry is “inactive”.

For the compound `Cc1ccc(O)c(NC2=C(Cl)C(=O)N(Cc3ccccc3)C2=O)c1`, the percent span entry was “inactive”.

In the case of `CCN(CC)c1ccc(NC(=O)COc2ccccc2C)cc1S(=O)(=O)Nc1ccccc1OC`, the percent span entry was “inactive”.

For `Cc1c(NC2=C(Cl)C(=O)N(c3ccccc3)C2=O)c(=O)n(-c2ccccc2)n1C`, the percent span entry is “inactive”.

`Cc1ccccc1-c1nc(-c2ccc(NC(=O)c3ccc4c(c3)OCO4)cc2)no1`: the percent span entry is “inactive”.

`CC(C)CNC(=O)c1cccc(NC(=O)c2ccc(Cl)c([N+](=O)[O-])c2)c1`: the percent span entry is “inactive”.

Take `O=C(NCCO)c1ccc2nc(-c3ccco3)c(-c3ccco3)nc2c1`: the percent span entry was “inactive”.

In the case of `CCN(CC)S(=O)(=O)c1cccc(C(=O)N/N=C/c2ccc(O)c(O)c2O)c1`, the percent span entry is “inactive”.

With `COc1ccc(C(=O)/C=C/c2cc(OC)c(O)c(OC)c2)c(F)c1`, the percent span entry is “inactive”.

For the compound `CCc1nnc(NC(=O)CSc2nnc(COc3ccc(C)cc3)n2-c2ccccc2)s1`, the percent span entry is “inactive”.

With `Cc1nc(NC(=O)CC(C)C)sc1-c1csc(Nc2ccc(Cl)cc2)n1`, the percent span result was “inactive”.

`Cc1cc(C)nc(SCc2cc(=O)c(OC(=O)c3cccc([N+](=O)[O-])c3)co2)n1`: the percent span entry is “inactive”.

As to `CCNCc1cc(Br)c(OCC(=O)Nc2ccccc2)c(OC)c1`, the percent span result is “inactive”.

As for `CCOC(=O)c1nc(Nc2ccc(Nc3ccccc3)cc2)c2ccccc2n1`, the percent span entry was “inactive”.

As to `Cc1c(NC2=C(Cl)C(=O)N(c3ccccc3Cl)C2=O)c(=O)n(-c2ccccc2)n1C`, the percent span result was “inactive”.

As to `CC(C)(C)C(=O)NC(NC(=S)Nc1ccc(S(N)(=O)=O)cc1)C(Cl)(Cl)Cl` (configuration not stated), the percent span entry was “inactive”.

For `CCOC(=O)c1ccc(NC(=O)CSCCC(=O)O)cc1`, the percent span entry is “inactive”.

With `O=c1nc2c(O)cccn2c2c1c(=O)[nH]c1ccccc12`, the percent span entry is “inactive”.

On to `COc1ccccc1NC(=O)CSc1nnc(-c2ccco2)n1Cc1ccco1`, for which the percent span entry was “inactive”.

Turning to `Cc1cc(N2CCN(C)CC2)nc2ccc(NC(=S)N3CCN(c4cccc(Cl)c4)CC3)cc12`, the percent span entry is “inactive”.

Consider `O=C(Oc1ccc(-c2cnc3ccccc3n2)cc1)c1cccc([N+](=O)[O-])c1`, for which the percent span result was “inactive”.

`CCCOc1ccc(-c2c(C(=O)N/N=C/c3ccc(OC)cc3)nnn2-c2nonc2N)cc1`: the percent span entry is “inactive”.

`O=C(Nc1nnc(SCc2ccccn2)s1)C1CC(=O)N(c2ccccc2)C1` (configuration not stated): the percent span result is “inactive”.

Regarding `Cc1ccc2nc3c(cc(C(N)=S)c(=N)n3CCCOC(C)C)c(=O)n2c1`, the percent span entry is “inactive”.

`COc1ccc(CCNC(=O)c2ccc3nc(-c4ccco4)c(-c4ccco4)nc3c2)cc1OC`: the percent span entry is “inactive”.

Consider `CCCn1c(N2CCN(C)CC2)nc2c1c(=O)[nH]c(=O)n2C`, for which the percent span entry was “inactive”.

`Cc1ccnc(NS(=O)(=O)c2ccc(NC(=O)c3c(-c4ccccc4Cl)noc3C)cc2)n1`: the percent span entry is “inactive”.

Take `CCCC(=O)OCCNc1cc(Sc2nccn2C)c2nonc2c1[N+](=O)[O-]`: the percent span result was “inactive”.

In the case of `COc1ccc(N2C(=O)C(Cl)=C(Oc3cccc(OC)c3)C2=O)cc1`, the percent span result was “inactive”.

Take `Cc1ccc(C2=N/C(=C/c3cccs3)C(=O)N2Nc2ccccc2)cc1`: the percent span result is “inactive”.

Turning to `CN1/C(=C\C(=O)Nc2ccc(Cl)cc2)C(C)(C)c2ccccc21`, the percent span result is “inactive”.

In the case of `Cc1ccc(-c2cc(C(=O)Nc3cc(C(=O)O)ccc3C)c3ccccc3n2)cc1`, the percent span entry was “inactive”.

Consider `O=C(c1ccccc1NS(=O)(=O)c1ccc(Br)s1)N1CCCC1`, for which the percent span result is “inactive”.

As to `CC(=O)N1CCN(C(=O)c2ccc(-n3c(C)ccc3C)cc2)CC1`, the percent span entry was “inactive”.

For the compound `COc1ccc(/C=C(/C(=O)c2cccs2)N2C=CC=CC2=C(C#N)C#N)cc1`, the percent span result was “inactive”.

For `COc1ccc(NC(=O)/C(Cl)=C(/Cl)S(=O)Cc2ccccc2)cn1` (configuration not stated), the percent span entry was “inactive”.

With `O=C(CSc1ccc(-c2ccccc2)nn1)NCc1ccco1`, the percent span entry was “inactive”.

On to `COc1cc(NC(=S)NC(=O)c2cc(C)cc(C)c2)ccc1NC(=O)c1cccs1`, for which the percent span result was “inactive”.

`CN1C(=O)/C(=C/c2ccc(-c3ccccc3[N+](=O)[O-])o2)SC1=Nc1ccc(Cl)c(C(=O)O)c1`: the percent span entry was “inactive”.

For the compound `Cc1ccc(/C=N/N(C)C2=NS(=O)(=O)c3ccccc32)o1`, the percent span result was “inactive”.

With `O=C(/C=C/c1c(F)cccc1Cl)Nc1ccncc1`, the percent span entry is “inactive”.

Take `Cc1ccc(C(=O)N/N=C2/NC(=O)CC(C(=O)Nc3ccccc3)S2)cc1` (configuration not stated): the percent span entry was “inactive”.

On to `CCOc1ccc(C(=O)Nc2nnn(CC)n2)cc1`, for which the percent span result is “inactive”.

Turning to `O=C(N/N=C/c1ccncc1)c1cccc(NC(=O)c2ccccc2Cl)c1`, the percent span entry was “inactive”.

Consider `Nc1ccc(C2=Nc3cccc4cccc(c34)N2)cc1`, for which the percent span result is “inactive”.

Take `O=C(NCCCN1CCN(CCCNC(=O)c2cc([N+](=O)[O-])ccc2Cl)CC1)c1cc([N+](=O)[O-])ccc1Cl`: the percent span entry was “inactive”.

Regarding `C(=C\c1ccccc1)/CSc1nnc(-c2ccccn2)n1Cc1ccco1`, the percent span entry is “inactive”.

Regarding `COc1ccc(Cc2c(O)nc(SC)n(C(C)=O)c2=O)cc1`, the percent span result is “inactive”.

On to `COc1ccc(NC(=O)/C(C#N)=C/c2c(C)nn(-c3ccc(F)cc3)c2Cl)cc1Cl`, for which the percent span entry was “inactive”.

On to `O=[N+]([O-])c1c(NCCCO)cc(Sc2nc3ccccc3s2)c2nonc12`, for which the percent span result is “inactive”.

Regarding `CSc1nnc2c3cc(C)ccc3n(Cc3ccccc3)c2n1`, the percent span result was “inactive”.

Consider `O=c1[nH]c(SCc2nc3ccccc3c(=O)n2-c2ccccc2C(F)(F)F)nc2ccccc12`, for which the percent span result was “inactive”.

Regarding `Cn1c(N)c(C(=O)COC(=O)c2cc(-c3ccco3)nc3ccccc23)c(=O)n(Cc2ccccc2)c1=O`, the percent span entry is “inactive”.

Take `COc1ccccc1Cn1nnc2c(=O)[nH]c(C3CCN(C(=O)c4ccc(C)cc4)CC3)nc21`: the percent span result is “inactive”.

Turning to `CCN(CC)c1ccc(NC2=C(Cl)C(=O)c3ccccc3C2=O)cc1`, the percent span entry was “inactive”.

As to `CC(C(=O)Nc1ccc([N+](=O)[O-])cc1)N1CCN(C/C=C/c2ccccc2)CC1` (configuration not stated), the percent span entry was “inactive”.

For `COc1ccc(-n2cc(-c3ccc(OC)c(OC)c3)[nH]c2=S)cc1`, the percent span entry is “inactive”.

Turning to `COc1ccc(C(=O)Nc2ccc(C(=O)OCC(=O)c3cccc4ccccc34)cc2)cc1`, the percent span result is “inactive”.

On to `Cc1ccc(NN2C(=O)C=CC2=O)cc1`, for which the percent span result was “inactive”.

Turning to `COc1cc(/C=C2/NC(=O)N(Cc3ccccc3F)C2=O)ccc1O`, the percent span entry was “inactive”.

As to `CC(C)(C)OC(=O)N1CCN(C(=O)[C@H](Cc2ccc(O)cc2)n2cc(CCO)nn2)CC1`, the percent span result is “inactive”.

For `COc1ccc(CC(=O)Nc2ccc(C(=O)Nc3nccs3)cc2)cc1OC`, the percent span entry was “inactive”.
